The record followed here is patent publication US20170121315A1, “HETEROBICYCLICALLY SUBSTITUTED 4-OXOBUTANE ACID DERIVATIVES AND USE THEREOF” (priority 2014, published 2017).

Holding throughout (assay type): biochemical
Assay [1] concerns the target T1, MMP-3 (Homo sapiens, UniProt P08254).
T1 construct: purchased R&D Systems 513-MP
The experiment in a line: In vitro MMP-3 inhibition test. Particulars: human MMP-3. From the text:
(§1) The MMP-mediated amidolytic cleavage of a suitable peptide substrate leads to an increase in fluorescent light here too. The signal intensity of the fluorescent light is directly proportional to the enzyme activity. The active concentration of a test compound at which half the enzyme is inhibited (50% signal intensity of the fluorescent light) is reported as the IC50 value.
(§2) Recombinant MMP-3 (R&D Systems, 513-MP) is chemically activated in accordance with the manufacturer's instructions using APMA. 1 μl of the test compound to be analysed (as a solution in DMSO, suitable concentrations e.g. 1 nM to 30 μM) is pipetted into 24 μl of activated enzyme (final concentration e.g. 2 nM) in reaction buffer (50 mM Tris/HCl pH 7.5, 10 mM CaCl2, 150 mM NaCl, 0.05% Brij®-35) in a white 384-hole microtiter plate (MTP). The enzymatic reaction is started by adding the intramolecularly quenched Mca-Arg-Pro-Lys-Pro-Val-Glu-Nval-Trp-Arg-Lys(Dnp)-NH2 substrate (final concentration e.g. 10 μM; R&D Systems, ES-002), so as to result in a total test volume of 50 μl. The course of the MMP-3 reaction is measured by measuring the fluorescence intensity (excitation 320 nm, emission 410 nm) over a suitable period of time (e.g. over 120 min at a temperature of 32° C.).

Assay [2] concerns the target T2, MMP-7 (Homo sapiens, UniProt P09237).
T2 construct: purchased R&D Systems 907-MP
T2 sequence (P09237 95-267): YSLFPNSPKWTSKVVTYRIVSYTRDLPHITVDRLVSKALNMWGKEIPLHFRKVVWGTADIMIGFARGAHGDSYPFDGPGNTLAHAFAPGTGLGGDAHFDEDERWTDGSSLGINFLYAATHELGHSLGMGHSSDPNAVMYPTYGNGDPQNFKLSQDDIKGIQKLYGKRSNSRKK
Description: In vitro MMP-7 inhibition test. Particulars: human MMP-7.
Source text: as §1
as §2, with “Recombinant MMP-7 (from R&D” for “Recombinant MMP-3 (R&D”, “Systems, 907-MP)” for “Systems, 513-MP)”, “e.g. 0.5” for “e.g. 2”, “quenched Mca-Pro-Leu-Gly-Leu-Dpa(Dnp)-Ala-Arg-NH2” for “quenched Mca-Arg-Pro-Lys-Pro-Val-Glu-Nval-Trp-Arg-Lys(Dnp)-NH2”, “Systems, ES-001),” for “Systems, ES-002),”, “the MMP-7” for “the MMP-3”

The target of assay [3] is T3, MMP-9 (Homo sapiens, UniProt P14780).
T3 construct: purchased R&D Systems 911-MP
T3 sequence (P14780 107-707 limits assumed): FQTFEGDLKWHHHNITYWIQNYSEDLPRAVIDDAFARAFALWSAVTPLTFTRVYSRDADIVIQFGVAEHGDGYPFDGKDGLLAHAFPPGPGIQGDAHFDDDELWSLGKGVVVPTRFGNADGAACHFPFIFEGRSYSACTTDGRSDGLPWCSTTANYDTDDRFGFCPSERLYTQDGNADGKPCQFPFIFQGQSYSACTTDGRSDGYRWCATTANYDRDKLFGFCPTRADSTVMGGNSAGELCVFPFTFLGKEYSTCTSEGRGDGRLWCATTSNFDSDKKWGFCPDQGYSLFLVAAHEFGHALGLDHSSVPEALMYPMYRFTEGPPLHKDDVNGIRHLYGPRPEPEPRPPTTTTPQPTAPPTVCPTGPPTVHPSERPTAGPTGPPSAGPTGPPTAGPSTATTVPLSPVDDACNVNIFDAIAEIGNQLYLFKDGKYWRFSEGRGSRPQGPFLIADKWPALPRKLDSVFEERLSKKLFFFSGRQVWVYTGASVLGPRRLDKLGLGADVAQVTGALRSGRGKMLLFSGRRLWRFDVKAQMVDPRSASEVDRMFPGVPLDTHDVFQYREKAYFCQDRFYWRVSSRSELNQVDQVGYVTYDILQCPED
Description: In vitro MMP-9 inhibition test. As to conditions: human MMP-9.
Source text: as §1
as §2, with “Recombinant MMP-9” for “Recombinant MMP-3”, “Systems, 911-MP)” for “Systems, 513-MP)”, “e.g. 0.1” for “e.g. 2”, “quenched Mca-Pro-Leu-Gly-Leu-Dpa(Dnp)-Ala-Arg-NH2” for “quenched Mca-Arg-Pro-Lys-Pro-Val-Glu-Nval-Trp-Arg-Lys(Dnp)-NH2”, “Systems, ES-001),” for “Systems, ES-002),”, “the MMP-9” for “the MMP-3”

Assay [4] deals with T4, MMP-13 (Homo sapiens, UniProt P45452).
T4 construct: purchased R&D Systems 511-MP
Description: In vitro MMP-13 inhibition test. Particulars: human MMP-13.
Source text: as §1
as §2, with “Recombinant MMP-13” for “Recombinant MMP-3”, “Systems, 511-MP)” for “Systems, 513-MP)”, “e.g. 0.1” for “e.g. 2”, “quenched Mca-Pro-Leu-Gly-Leu-Dpa(Dnp)-Ala-Arg-NH2” for “quenched Mca-Arg-Pro-Lys-Pro-Val-Glu-Nval-Trp-Arg-Lys(Dnp)-NH2”, “Systems, ES-001),” for “Systems, ES-002),”, “the MMP-13” for “the MMP-3”

Assay [5] concerns the target T5, MMP-16 (Homo sapiens, UniProt P51512).
T5 construct: purchased R&D Systems 1785-MP
Description: In vitro MMP-16 inhibition test. As to conditions: human MMP-16.
Source text: as §1
Recombinant MMP-16 (R&D Systems, 1785-MP) is enzymatically activated in accordance with the manufacturer's instructions using recombinant furin (R&D Systems, 1503-SE). 1 μl of the test compound to be analysed (as a solution in DMSO, suitable concentrations e.g. 1 nM to 30 μM) is pipetted into 24 μl of activated enzyme (final concentration e.g. 1 nM) in reaction buffer (50 mM Tris/HCl pH 7.5, 10 mM CaCl2, 150 mM NaCl, 0.05% Brij®-35) in a white 384-hole microtiter plate (MTP). The enzymatic reaction is started by adding the intramolecularly quenched Mca-Lys-Pro-Leu-Gly-Leu-Dpa(Dnp)-Ala-Arg-NH2 substrate (final concentration e.g. 5 μM; R&D Systems, ES-010), so as to result in a total test volume of 50 μl. The course of the MMP-16 reaction is measured by measuring the fluorescence intensity (excitation 320 nm, emission 410 nm) over a suitable period of time (e.g. over 120 min at a temperature of 32° C.).

T1 sequence (P08254 100-477): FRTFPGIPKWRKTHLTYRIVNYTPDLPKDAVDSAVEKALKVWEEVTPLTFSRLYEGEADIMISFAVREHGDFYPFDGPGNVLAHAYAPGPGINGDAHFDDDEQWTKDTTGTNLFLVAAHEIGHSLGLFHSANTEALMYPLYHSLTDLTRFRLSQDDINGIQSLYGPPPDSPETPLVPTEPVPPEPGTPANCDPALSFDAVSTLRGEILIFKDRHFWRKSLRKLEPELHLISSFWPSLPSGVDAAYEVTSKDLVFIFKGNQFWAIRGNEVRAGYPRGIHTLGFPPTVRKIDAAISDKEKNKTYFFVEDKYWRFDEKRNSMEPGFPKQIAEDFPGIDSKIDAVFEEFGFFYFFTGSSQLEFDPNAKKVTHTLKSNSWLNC
T5 sequence (P51512 120-564 limits assumed): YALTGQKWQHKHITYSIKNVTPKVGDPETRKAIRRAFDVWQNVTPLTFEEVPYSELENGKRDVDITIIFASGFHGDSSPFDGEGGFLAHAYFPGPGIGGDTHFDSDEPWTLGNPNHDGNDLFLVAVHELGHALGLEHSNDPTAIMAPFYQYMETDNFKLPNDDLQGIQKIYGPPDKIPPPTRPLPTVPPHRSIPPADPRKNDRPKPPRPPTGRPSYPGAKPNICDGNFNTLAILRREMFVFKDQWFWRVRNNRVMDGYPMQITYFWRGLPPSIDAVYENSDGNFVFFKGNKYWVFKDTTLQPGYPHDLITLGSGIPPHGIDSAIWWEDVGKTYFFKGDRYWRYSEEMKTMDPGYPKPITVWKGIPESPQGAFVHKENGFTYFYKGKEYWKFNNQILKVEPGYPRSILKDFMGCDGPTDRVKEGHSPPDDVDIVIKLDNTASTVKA

For `O=C(CC(CCn1nnc2ccccc2c1=O)C(=O)O)c1cc2cc(OCCc3ccccc3Cl)ccc2o1` (racemic) [Example 1, (+/−)-4-{5-[2-(2-Chlorophenyl)ethoxy]-1-benzofur-2-yl}-4-oxo-2-[2-(4-oxo-1,2,3-benzotriazin-3(4H)-yl)ethyl]butanoic acid], the IC50 in assay [1], in assay [2], in assay [3], in assay [4] and in assay [5] was more than 40 µM in each case.
In the case of `CCCCCCCOc1ccc2oc(C(=O)CC(CCn3nnc4ccccc4c3=O)C(=O)O)cc2c1` (racemic) [Example 31, (+/−)-4-[5-(Heptyloxy)-1-benzofur-2-yl]-4-oxo-2-[2-(4-oxo-1,2,3-benzotriazin-3(4H)-yl)ethyl]butanoic acid], the IC50 in assay [1] is more than 40 µM; in assay [2], more than 40 µM; in assay [3] it was 9.7 µM; in assay [4], 5.1 µM; in assay [5] it was more than 40 µM.
Turning to `O=C(CC(CCn1nnc2ccccc2c1=O)C(=O)O)c1coc2cc(OCCC3CCCC3)ccc12` (racemic) [Example 75, (+/−)-4-[6-(2-Cyclopentylethoxy)-1-benzofur-3-yl]-4-oxo-2-[2-(4-oxo-1,2,3-benzotriazin-3(4H)-yl)ethyl]butanoic acid], the IC50 in assay [1] is more than 40 µM; in assay [2] it was more than 40 µM; in assay [3], 0.45 µM; in assay [4] it was 3.8 µM; in assay [5], more than 40 µM.
Turning to `O=C(CC(CCn1nnc2ccccc2c1=O)C(=O)O)c1cc2cc(OCc3ccc(F)cc3)ccc2o1` (single isomer, unassigned; (+)) [Example 23, (+)-4-{5-[(4-Fluorobenzyl)oxy]-1-benzofur-2-yl}-4-oxo-2-[2-(4-oxo-1,2,3-benzotriazin-3(4H)-yl)ethyl]butanoic acid], the IC50 is more than 40 µM in assay [1]; more than 40 µM in assay [2]; 13 µM in assay [3]; 5.3 µM in assay [4]; 30 µM in assay [5].
As for `O=C(CC(CCn1nnc2ccccc2c1=O)C(=O)O)c1noc2cc(OCCc3ccccc3)ccc12` (racemic) [Example 144, (+/−)-4-Oxo-2-[2-(4-oxo-1,2,3-benzotriazin-3(4H)-yl)ethyl]-4-[6-(2-phenylethoxy)-1,2-benzoxazol-3-yl]butanoic acid], the half-inhibitory concentration (IC50) is 18 µM in assay [1]; more than 40 µM in assay [2]; 0.76 µM in assay [3]; 1.6 µM in assay [4]; 15 µM in assay [5].
For `O=C(CC(CCn1nnc2ccc(C(F)(F)F)cc2c1=O)C(=O)O)c1noc2cc(OCc3ccccc3)ccc12` (racemic) [Example 154, (+/−)-4-[6-(Benzyloxy)-1,2-benzoxazol-3-yl]-4-oxo-2-{2-[4-oxo-6-(trifluoromethyl)-1,2,3-benzotriazin-3(4H)-yl]ethyl}butanoic acid], in that order: 10 µM, 18 µM, 0.25 µM, 2.3 µM and 13 µM.
The corresponding values for `O=C(CC(CCn1nnc2ccccc2c1=O)C(=O)O)c1cc2cc(OCCc3ccccc3)ccc2o1` (single isomer, unassigned; (+)) [Example 21, (+)-4-Oxo-2-[2-(4-oxo-1,2,3-benzotriazin-3(4H)-yl)ethyl]-4-[5-(2-phenylethoxy)-1-benzofur-2-yl]butanoic acid] are 22 µM, more than 40 µM, 5.6 µM, 1.8 µM and more than 40 µM.
The corresponding values for `O=C(CC(CCn1nnc2ccccc2c1=O)C(=O)O)c1cc2cc(OCc3ccc(C(F)(F)F)cc3)ccc2o1` (racemic) [Example 44, (+/−)-4-Oxo-2-[2-(4-oxo-1,2,3-benzotriazin-3(4H)-yl)ethyl]-4-(5-{[4-(trifluoromethyl)benzyl]oxy}-1-benzofur-2-yl)butanoic acid] are 23 µM, more than 40 µM, 9.9 µM, 2.1 µM and more than 40 µM.
As for `O=C(CC(CCn1nnc2ccccc2c1=O)C(=O)O)c1cc2cc(OCCC3CCOCC3)ccc2o1` (racemic) [Example 6, (+/−)-4-Oxo-2-[2-(4-oxo-1,2,3-benzotriazin-3(4H)-yl)ethyl]-4-{5-[2-(tetrahydro-2H-pyran-4-yl)ethoxy]-1-benzofur-2-yl}butanoic acid], the IC50 is 26 µM in assay [1]; more than 40 µM in assay [2]; 3.4 µM in assay [3]; 0.73 µM in assay [4]; more than 40 µM in assay [5].
Regarding `O=C(CC(CCn1nnc2ccccc2c1=O)C(=O)O)c1cc2cc(OCCC3CCCC3)ccc2o1` (racemic) [Example 7, (+/−)-4-[5-(2-Cyclopentylethoxy)-1-benzofur-2-yl]-4-oxo-2-[2-(4-oxo-1,2,3-benzotriazin-3(4H)-yl)ethyl]butanoic acid], the IC50 was 27 µM in assay [1]; more than 40 µM in assay [2]; 5 µM in assay [3]; 5 µM in assay [4]; more than 40 µM in assay [5].
Take `CCCCCCOc1ccc2c(C(=O)CC(CCn3nnc4ccccc4c3=O)C(=O)O)coc2c1` (single isomer, unassigned; (+)) [Example 100, (+)-4-[6-(Hexyloxy)-1-benzofur-3-yl]-4-oxo-2-[2-(4-oxo-1,2,3-benzotriazin-3(4H)-yl)ethyl]butanoic acid]: the IC50 was more than 40 µM in assay [1]; more than 40 µM in assay [2]; 0.074 µM in assay [3]; 0.14 µM in assay [4]; more than 40 µM in assay [5].
